# Publication PMC9411704, “Assessment of the Carcinogenic Potential of Pretomanid in Transgenic Tg.rasH2 Mice” (International Journal of Toxicology, 2022)
# Entries after “also recorded” stand apart in the source; their conditions may differ.
# Assays:
# [1] = test system: Salmonella typhimurium TA100; experiment: Bacterial reverse mutation (Ames) assay, plate incorporation; assay type: cell-based
# Experimental: (§1) Pretomanid and metabolite M50 were evaluated over a range of concentrations, with and without an added metabolic activation system, in five tester strains: Salmonella typhimurium histidine auxotrophs TA98, TA100, TA1535, and TA1537 [9] and the Escherichia coli tryptophan auxotroph WP2uvrA. S. typhimurium strains were received from Dr. Bruce Ames, Department of Biochemistry, University of California (Berkeley, CA). The E. coli strain was received from The National Collection of Industrial Bacteria, Torrey Research Station, Aberdeen, Scotland (United Kingdom). The metabolic activation system was a liver homogenate (S9) mix. The S9 component was prepared from male Sprague-Dawley rats that had been injected (intraperitoneally) with Aroclor^TM 1254 at 500 mg/kg, 5 days before sacrifice. The S9 mix was prepared immediately before use and contained 10% S9, 5 mM glucose-6-phosphate, 4 mM β-nicotinamide adenine dinucleotide phosphate, 8 mM MgCl2 and 33 mM KCl in a 100 mM phosphate buffer at pH 7.4. Pretomanid was tested at 0.05 to 5000 μg/plate. Metabolite M50 was tested at 78 to 2500 μg/plate. A negative (solvent) control culture and appropriate positive control cultures were included in each assay.
# (§2) Bacteria were exposed to test materials by the plate incorporation method originally described by Ames et al and updated by Maron and Ames. Bottom agar was Vogel-Bonner minimal medium E [12] with 1.5% (w/v) agar, and the top Agar was 0.7% (w/v) agar and 0.5% (w/v) NaCl. After incubation, cultures were evaluated using a dissecting microscope for precipitation or cytotoxicity, and revertant colonies were counted. The mean numbers of revertant colonies in various cultures were compared to reach conclusions about assay validity and mutagenic potential. For the test article to be evaluated positive, it must cause a dose-related increase in the mean revertants per plate of at least one tester strain with a minimum of two increasing concentrations of test article.
# [2] = test system: Salmonella typhimurium TA1535; experiment: as above; assay type: cell-based
# Experimental: as §1, §2
# [3] = test system: Salmonella typhimurium TA1537; experiment: as above; assay type: cell-based
# Experimental: as §1, §2
# [4] = test system: Salmonella typhimurium TA98; experiment: as above; assay type: cell-based
# Experimental: as §1, §2
# Escherichia coli WP2uvrA = experiment: as above
# Experimental: as §1, §2
# [5] = test system: Salmonella typhimurium TA98, TA100, TA1535, TA1537 and Escherichia coli WP2uvrA; experiment: Bacterial reverse mutation (Ames) assay, overall over five tester strains; assay type: cell-based; details: up to 2500 μg/plate
# Experimental: as §1, §2
# [6] = Toxicokinetic assessment in wild-type CByB6F1 mice (Day 14); assay type: in vivo; details: for Mouse M50 AUC0-24 as multiple of estimated human M50 AUC0-24: highest dose, human 200 mg/day
# Experimental: TK animals were included for the vehicle control (n = 4 sex) and pretomanid-treated groups (n = 10 sex/group). The TK cohort animals were dosed by oral gavage once daily for 14 consecutive days.
# Toxicokinetic blood samples (300 μL for males and 250 μL for females) were collected in K3EDTA tubes after 14 doses from the TK cohort via retro-orbital bleeding under 70% CO2/30% O2 anesthesia. On Day 14, control mice were bled once 2 hours after dosing. On Day 14 and 15, Pretomanid-treated mice were bled predose, 0.5, 1, 3, 6, and 24 hours post dose. TK animals were euthanized after their final blood collection.
# Collected blood was stored on wet ice until the samples were processed to plasma. Blood samples were centrifuged at 4±2°C and 8000 g for 5 minutes. Plasma was snap frozen in liquid nitrogen and stored in a deep freezer (≤−60°C) within 60 minutes of bleeding the TK animals.
# Pretomanid and the M50 metabolite were quantified in mouse plasma by liquid chromatography-tandem mass spectrometry (LC-MS/MS) after protein precipitation. Aliquots of 25 µL of plasma were spiked with internal standards (PA-824-d5 or morphine) and proteins were precipitated in 1% formic acid in acetonitrile. A partial supernatant from each sample was transferred to a clean plate and diluted in acetonitrile/water (40:60) for pretomanid and deionized water for M50. Supernatant was analyzed for pretomanid or M50 using validated LC-MS/MS methods with a linear range of 20 to 10,000 ng/mL for pretomanid and 10 to 5,000 ng/mL for M50 (methods validated at Alliance Pharma, Malvern PA).
# Sample collection time and plasma concentration data were analyzed to derive TK parameters by standard model independent methods based on the mean plasma concentration-time data for each dose group. The TK analyses of the plasma concentration profiles were performed using non-compartmental analysis in Phoenix WinNonlin Professional 7.0 (Certara, L.P., St. Louis, MO, USA). Concentration values below the lower limit of quantitation were treated as zeros for analysis purposes.
structure (smiles),measurement,setting,value
O=[N+]([O-])c1cn2c(n1)OC[C@@H](O)C2 [M50],Mean Number of Revertants/Plate,"[1]; TA100 +S9, 78 μg/plate",132 Revertants/Plate
same,Mean Number of Revertants/Plate,"[1]; TA100 +S9, 156 μg/plate",125 Revertants/Plate
same,Mean Number of Revertants/Plate,"[1]; TA100 +S9, 313 μg/plate",252 Revertants/Plate
same,Mean Number of Revertants/Plate,"[1]; TA100 +S9, 625 μg/plate",312 Revertants/Plate
same,Mean Number of Revertants/Plate,"[1]; TA100 +S9, 1250 μg/plate",666 Revertants/Plate
same,Mean Number of Revertants/Plate,"[1]; TA100 +S9, 2500 μg/plate",758 Revertants/Plate
same,Change in revertant colonies,"[1]; TA100, presence and absence of S9",significant increases
same,Mean Number of Revertants/Plate,"[1]; TA100 −S9, 78 μg/plate",120 Revertants/Plate
same,Mean Number of Revertants/Plate,"[1]; TA100 −S9, 156 μg/plate",135 Revertants/Plate
same,Mean Number of Revertants/Plate,"[1]; TA100 −S9, 313 μg/plate",203 Revertants/Plate
same,Mean Number of Revertants/Plate,"[1]; TA100 −S9, 625 μg/plate",294 Revertants/Plate
same,Mean Number of Revertants/Plate,"[1]; TA100 −S9, 1250 μg/plate",588 Revertants/Plate
same,Mean Number of Revertants/Plate,"[1]; TA100 −S9, 2500 μg/plate",868 Revertants/Plate
same,Mean Number of Revertants/Plate,"[2]; TA1535 +S9, 78 μg/plate",12 Revertants/Plate
same,Mean Number of Revertants/Plate,"[2]; TA1535 +S9, 156 μg/plate",15 Revertants/Plate
same,Mean Number of Revertants/Plate,"[2]; TA1535 +S9, 313 μg/plate",31 Revertants/Plate
same,Mean Number of Revertants/Plate,"[2]; TA1535 +S9, 625 μg/plate",42 Revertants/Plate
same,Mean Number of Revertants/Plate,"[2]; TA1535 +S9, 1250 μg/plate",67 Revertants/Plate
same,Mean Number of Revertants/Plate,"[2]; TA1535 +S9, 2500 μg/plate",81 Revertants/Plate
same,Change in revertant colonies,"[2]; TA1535, presence and absence of S9",significant increases
same,Mean Number of Revertants/Plate,"[2]; TA1535 −S9, 78 μg/plate",20 Revertants/Plate
same,Mean Number of Revertants/Plate,"[2]; TA1535 −S9, 156 μg/plate",16 Revertants/Plate
same,Mean Number of Revertants/Plate,"[2]; TA1535 −S9, 313 μg/plate",19 Revertants/Plate
same,Mean Number of Revertants/Plate,"[2]; TA1535 −S9, 625 μg/plate",24 Revertants/Plate
same,Mean Number of Revertants/Plate,"[2]; TA1535 −S9, 1250 μg/plate",43 Revertants/Plate
same,Mean Number of Revertants/Plate,"[2]; TA1535 −S9, 2500 μg/plate",60 Revertants/Plate
same,Mean Number of Revertants/Plate,"[3]; TA1537 +S9, 78 μg/plate",9 Revertants/Plate
same,Mean Number of Revertants/Plate,"[3]; TA1537 +S9, 156 μg/plate",12 Revertants/Plate
same,Mean Number of Revertants/Plate,"[3]; TA1537 +S9, 313 μg/plate",8 Revertants/Plate
same,Mean Number of Revertants/Plate,"[3]; TA1537 +S9, 625 μg/plate",14 Revertants/Plate
same,Mean Number of Revertants/Plate,"[3]; TA1537 +S9, 1250 μg/plate",20 Revertants/Plate
same,Mean Number of Revertants/Plate,"[3]; TA1537 +S9, 2500 μg/plate",11 Revertants/Plate
same,Change in revertant colonies,"[3]; TA1537, absence of S9",significant increases
same,Mean Number of Revertants/Plate,"[3]; TA1537 −S9, 78 μg/plate",8 Revertants/Plate
same,Mean Number of Revertants/Plate,"[3]; TA1537 −S9, 156 μg/plate",13 Revertants/Plate
same,Mean Number of Revertants/Plate,"[3]; TA1537 −S9, 313 μg/plate",7 Revertants/Plate
same,Mean Number of Revertants/Plate,"[3]; TA1537 −S9, 625 μg/plate",13 Revertants/Plate
same,Mean Number of Revertants/Plate,"[3]; TA1537 −S9, 1250 μg/plate",10 Revertants/Plate
same,Mean Number of Revertants/Plate,"[3]; TA1537 −S9, 2500 μg/plate",18 Revertants/Plate
same,Mean Number of Revertants/Plate,"[4]; TA98 +S9, 78 μg/plate",18 Revertants/Plate
same,Mean Number of Revertants/Plate,"[4]; TA98 +S9, 156 μg/plate",19 Revertants/Plate
same,Mean Number of Revertants/Plate,"[4]; TA98 +S9, 313 μg/plate",22 Revertants/Plate
same,Mean Number of Revertants/Plate,"[4]; TA98 +S9, 625 μg/plate",25 Revertants/Plate
same,Mean Number of Revertants/Plate,"[4]; TA98 +S9, 1250 μg/plate",24 Revertants/Plate
same,Mean Number of Revertants/Plate,"[4]; TA98 +S9, 2500 μg/plate",38 Revertants/Plate
same,Change in revertant colonies,"[4]; TA98, presence of S9",significant increases
same,Mean Number of Revertants/Plate,"[4]; TA98 −S9, 78 μg/plate",13 Revertants/Plate
same,Mean Number of Revertants/Plate,"[4]; TA98 −S9, 156 μg/plate",16 Revertants/Plate
same,Mean Number of Revertants/Plate,"[4]; TA98 −S9, 313 μg/plate",14 Revertants/Plate
same,Mean Number of Revertants/Plate,"[4]; TA98 −S9, 625 μg/plate",17 Revertants/Plate
same,Mean Number of Revertants/Plate,"[4]; TA98 −S9, 1250 μg/plate",21 Revertants/Plate
same,Mean Number of Revertants/Plate,"[4]; TA98 −S9, 2500 μg/plate",33 Revertants/Plate
same,Mean Number of Revertants/Plate,"Escherichia coli WP2uvrA; WP2uvrA +S9, 78 μg/plate",18 Revertants/Plate
same,Mean Number of Revertants/Plate,"Escherichia coli WP2uvrA; WP2uvrA +S9, 156 μg/plate",17 Revertants/Plate
same,Mean Number of Revertants/Plate,"Escherichia coli WP2uvrA; WP2uvrA +S9, 313 μg/plate",23 Revertants/Plate
same,Mean Number of Revertants/Plate,"Escherichia coli WP2uvrA; WP2uvrA +S9, 625 μg/plate",48 Revertants/Plate
same,Mean Number of Revertants/Plate,"Escherichia coli WP2uvrA; WP2uvrA +S9, 1250 μg/plate",50 Revertants/Plate
same,Mean Number of Revertants/Plate,"Escherichia coli WP2uvrA; WP2uvrA +S9, 2500 μg/plate",50 Revertants/Plate
same,Mean Number of Revertants/Plate,"Escherichia coli WP2uvrA; WP2uvrA −S9, 78 μg/plate",18 Revertants/Plate
same,Mean Number of Revertants/Plate,"Escherichia coli WP2uvrA; WP2uvrA −S9, 156 μg/plate",24 Revertants/Plate
same,Mean Number of Revertants/Plate,"Escherichia coli WP2uvrA; WP2uvrA −S9, 313 μg/plate",26 Revertants/Plate
same,Mean Number of Revertants/Plate,"Escherichia coli WP2uvrA; WP2uvrA −S9, 625 μg/plate",29 Revertants/Plate
same,Mean Number of Revertants/Plate,"Escherichia coli WP2uvrA; WP2uvrA −S9, 1250 μg/plate",49 Revertants/Plate
same,Mean Number of Revertants/Plate,"Escherichia coli WP2uvrA; WP2uvrA −S9, 2500 μg/plate",71 Revertants/Plate
same,Change in revertant colonies,"Escherichia coli WP2uvrA; WP2uvrA, presence and absence of S9",significant increases
same,Precipitate or cytotoxicity in the Ames assay,[5]; single non-GLP assay,no precipitate or cytotoxicity at any concentration
same,Mutagenic potential,"[5]; with and without S9, non-GLP",genotoxic; also recorded: positive
same,Exposure to M50 metabolite relative to pretomanid,"[6]; all dose levels, both sexes",less than 10%
same,AUC(0-t),"[6]; female, CByB6F1 (wild-type), mouse, plasma, oral, 80 mg/kg/day, females, highest dose in the carcinogenicity study, read-out: Mean M50 AUC0-24",10200 ng·h/mL
same,Mouse M50 AUC0-24 as multiple of estimated human M50 AUC0-24,[6]; females,approximately 3 X
same,Mean M50 AUC0-24,"[6]; males, highest dose in the carcinogenicity study",4600 ng·h/mL
same,Mouse M50 AUC0-24 as multiple of estimated human M50 AUC0-24,[6]; males,approximately 1.5 X
